Laboratory results as given in patent publication US7632952B2, “Benzothiazoles and the use thereof as medicaments” (Aventis Pharma S.A., priority 2004, dated 2009).
Where a name gives a salt, the structure may show the parent alone. Read-outs that look alike come from different tables or passages of the source.

What was measured:
CDK4/cyclin D1 = CDK4/cyclin D1 (Homo sapiens, UniProt P11802); experiment: CDK4/cyclin D1 Flashplate test in 96-well format; format: biochemical
Experimental: 2. CDK4/cyclin D1 Protocol:
Purification of the CDK4-HA/cyclin D1-(His)6 Complex by IMAC (Immobilized Metal Affinity Chromatography):
Two recombinant baculoviruses bearing the human sequences coding, respectively, for CDK4-HA (C-terminal fusion with the hemaglutinin tag) and for cyclin D1-(His)6 are used to coinfect insect Sf9 cells. Sixty hours after the start of the coinfection, the cells are harvested by centrifugation and then frozen at −20° C. until the time of use.
CDK4/cyclin D1 Flashplate Test in 96-Well Format
A test in 96-well “Flashplate” plates coated with streptavidin is used to evaluate the inhibition of the CDK4/cyclin D1 kinase complex by the products of the invention. To perform this test, the biotinylated peptide substrate, a fragment of the pRb protein (biotinyl-[…]-amide) is dissolved at a concentration of 2 mM in kinase buffer (HEPES/NaOH 50 mM, NaCl 1 mM, MgCl2 5 mM, pH 7.5) in order to constitute a stock solution stored at −20° C. in the form of 110 μl aliquots. On the day of the experiment, an aliquot of this solution is thawed and diluted in kinase buffer containing 1 mM of dithiothreitol, and added to the buffer extemporaneously, in order to obtain a final peptide concentration of 2.571 μM. 70 μl of this solution are added to each well of the Flashplate in order to obtain a final substrate concentration of 1.8 μM during the enzymatic reaction, performed in a final volume of the reaction medium of 100 μl (cf. below). Intermediate dilutions of inhibitors (products of the invention) at various concentrations are prepared in DMSO from stock solutions at 10 mM in separate tubes. 1000 μM, 333.3 μM, 111.1 μM, 37.03 μM, 12.35 μM, 4.11 μM and 1.37 μM dilutions are thus prepared. 1 μl of each of these solutions (or 1 μl of DMSO for the controls) is then transferred into the wells of the test plate. Into each well are then added 19 μl of a solution of a mixture of adenosine triphosphate (ATP) and of ATPy^33P in the kinase buffer at a concentration of 5.26 μM of ATP total and 78.9 μCi/ml of ^33P. The enzymatic reaction is triggered by addition of 10 μl per well of a solution of CDK4/cyclin D1 at 250 nM in the kinase buffer containing 1 mM of dithiothreitol (or 10 μl of kinase buffer containing 1 mM of dithiothreitol for the reaction blanks).
(§1) After addition of all the reagents, the test plate is incubated at 30° C. with orbital stirring at 650 rpm. After the incubation, the plate is washed three times with 300 μl per well of PBS (phosphate-buffered saline, pH=7.4, without calcium or magnesium, reference 10010-015, Gibco BRL). The incorporation of ^33P into the substrate peptide is quantified by scintillation counting using a Packard Topcount.NXT machine. The inhibitory activity of the products of the invention is evaluated by measuring the inhibitory concentration that allows a 50% reduction in the enzymatic activity (IC50).

CDK2/cyclin E = CDK2/cyclin E (Homo sapiens, UniProt P24941); experiment: CDK2/cyclin E Flashplate test in 96-well format; format: biochemical
Experimental: 1. Protocol CDK2/cyclin E:
Purification of the CDK2/cyclin E-(His)6 Complex by IMAC (Immobilized Metal Affinity Chromatography):
Two recombinant baculoviruses bearing the human sequences coding, respectively, for CDK2 and cyclin E (the latter comprising a C-terminal hexahistidine tag) are used to coinfect insect Sf21 cells. Two to three days after the start of coinfection, the cells are harvested by centrifugation and then stored at −40° C. until the time of use. After thawing and mechanical lysis of the cells, the complex present in the lysis supernatant is purified by affinity chromatography on nickel (IMAC), and stored at −80° C.
CDK2/cyclin E Flashplate Test in 96-Well Format
A format in 96-well plates coated with streptavidin is used to test the activity of the compounds on the kinase activity of CDK2/cyclin E.
To perform this test, the biotinylated peptide substrate, a fragment of the pRb protein (biotinyl-[…]-OH) is dissolved at a concentration of 1 mM in kinase buffer (HEPES/NaOH 50 mM, NaCl 1 mM, MgCl2 5 mM, pH 7.5) in order to constitute a stock solution stored at −20° C. in the form of 110 μl aliquots. On the day of the experiment, an aliquot of this solution is thawed and diluted in kinase buffer containing 1 mM of dithiothreitol, and added to the buffer extemporaneously, in order to obtain a concentration of 14.3 μM. 70 μl of this solution are added to each well of the Flashplate in order to obtain a final substrate concentration of 10 μM during the enzymatic reaction, performed in a final volume of the reaction medium of 100 μl (cf. below).
Intermediate dilutions of inhibitors (products of the invention) at various concentrations are prepared in DMSO from stock solutions at 10 mM in separate tubes. 1000 μM, 333.3 μM, 111.1 μM, 37.03 μM, 12.35 μM, 4.11 μM and 1.37 μM dilutions are thus prepared. 1 μl of each of these solutions (or 1 μl of DMSO for the controls) is transferred into the wells of the test plate.
Into each well are then added 19 μl of a solution of a mixture of adenosine triphosphate (ATP) and of ATPy^33P in the kinase buffer at a concentration of 5.26 μM of ATP total and 52.6 μCi/ml of ^33P. The enzymatic reaction is triggered by addition of 10 μl per well of a solution of CDK2/cyclin E at 200 nM in the kinase buffer containing 1 mM of dithiothreitol (or 10 μl of kinase buffer containing 1 mM of dithiothreitol for the reaction blanks).
After addition of all the reagents, the plate is incubated at 30° C. with orbital stirring at 650 rpm.
as §1, with “When” for “After addition of all”, “incubation” for “reagents, the test plate”, “complete,” for “incubated at 30° C. with orbital stirring at 650 rpm. After the incubation,”, “the” for “the substrate”

HeLa = HeLa proliferation; format: cell-based; conditions: Homo sapiens, read-out: HeLa proliferation EC50 (nM) DG

Chain of CDK4/cyclin D1 (P11802 whole entry): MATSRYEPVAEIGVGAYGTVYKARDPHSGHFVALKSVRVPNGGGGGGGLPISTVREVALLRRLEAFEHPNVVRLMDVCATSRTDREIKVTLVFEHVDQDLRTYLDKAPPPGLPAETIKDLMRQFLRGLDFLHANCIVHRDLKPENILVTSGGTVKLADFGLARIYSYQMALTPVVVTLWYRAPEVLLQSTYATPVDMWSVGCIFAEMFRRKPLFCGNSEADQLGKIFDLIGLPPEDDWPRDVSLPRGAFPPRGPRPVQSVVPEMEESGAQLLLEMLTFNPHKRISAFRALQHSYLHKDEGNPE
Chain of CDK4/cyclin D1 (P24385 whole entry partner): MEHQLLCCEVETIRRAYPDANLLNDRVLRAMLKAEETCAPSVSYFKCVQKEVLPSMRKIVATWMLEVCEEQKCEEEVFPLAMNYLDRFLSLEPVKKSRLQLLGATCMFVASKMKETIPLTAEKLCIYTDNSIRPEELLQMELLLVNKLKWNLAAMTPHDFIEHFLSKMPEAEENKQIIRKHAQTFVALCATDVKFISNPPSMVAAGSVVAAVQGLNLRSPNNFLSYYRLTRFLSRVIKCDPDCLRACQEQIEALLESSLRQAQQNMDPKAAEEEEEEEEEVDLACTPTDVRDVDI

SMILES	IC50 (CDK4/cyclin D1)	IC50 (CDK2/cyclin E; read-out: CDK2 IC50)	EC50 (HeLa)	IC50 (CDK2/cyclin E)
O=C(CCC1CCNCC1)Nc1nc2ccc(OS(=O)(=O)c3ccc(NCCCn4ccnc4)cc3)cc2s1 [Example 25a, 4-(3-Imidazol-1-ylpropyl-amino)benzenesulfonic acid 2-(3-piperid-4-ylpropionyl-amino)benzothiazol-6-yl ester hydrochloride]	1700 nM	365 nM	> 12500 nM	
O=C(CC1CCNCC1)Nc1nc2ccc(OS(=O)(=O)c3ccc(NCCCn4ccnc4)cc3)cc2s1 [Example 19a, 4-(3-Imidazol-1-ylpropyl-amino)benzenesulfonic acid 2-(2-piperid-4-ylacetyl-amino)benzothiazol-6-yl ester hydrochloride]	471 nM	2720 nM		
CC(C)N(CCNc1ccc(S(=O)(=O)Oc2ccc3nc(NC(=O)CCCCCCN)sc3c2)cc1)C(C)C [Example 52, 4-(2-diisopropylaminoethylamino)benzenesulfonic acid 2-(7-aminoheptanoylamino)benzothiazol-6-yl ester hydrochloride]	189 nM	112 nM	2950 nM	
CC(C)NCCNc1ccc(S(=O)(=O)Oc2ccc3nc(NC(=O)CCCCCCCN)sc3c2)cc1 [Example 21, 4-(2-isopropylaminoethylamino)benzenesulfonic acid 2-(8-aminooctanoylamino)benzothiazol-6-yl ester hydrochloride]	539 nM	227 nM	2460 nM	
CC(C)(O)CNc1ccc(S(=O)(=O)Oc2ccc3nc(NC(=O)CCC4CCNCC4)sc3c2)cc1 [Example 84, 4-(2-hydroxy-2-methylpropylamino)benzene-sulfonic acid 2-(3-piperidin-4-ylpropionylamino)benzothiazol-6-yl ester hydrochloride]	683 nM	220 nM		
CC(C)N(CCNc1ccc(S(=O)(=O)Oc2ccc3nc(NC(=O)C4CNC4)sc3c2)cc1)C(C)C [Example 39, 4-(2-diisopropylaminoethylamino)benzenesulfonic acid 2-[(azetidine-3-carbonyl)amino]benzothiazol-6-yl ester]	2330 nM	3060 nM		
CC(C)(O)CNc1ccc(S(=O)(=O)Oc2ccc3nc(NC(=O)C4CCNCC4)sc3c2)cc1 [Example 5, 4-(2-hydroxy-2-methylpropylamino)benzene-sulfonic acid 2-[(piperidine-4-carbonyl)amino]benzothiazol-6-yl ester]	3970 nM	995 nM		
CC(C)NCCNc1ccc(S(=O)(=O)Oc2ccc3nc(NC(=O)CC4CCNCC4)sc3c2)cc1 [Example 18, 4-(2-isopropylaminoethylamino)benzenesulfonic acid 2-(2-piperid-4-ylacetylamino)benzothiazol-6-yl ester hydrochloride]	480 nM	2680 nM		
CC1(C)CC(Nc2ccc(S(=O)(=O)Oc3ccc4nc(NC(=O)C5CC5)sc4c3)cc2)CC(C)(C)N1[O] [Example 87, 4-(1-oxyl-2,2,6,6-tetramethylpiperidin-4-ylamino)-benzenesulfonic acid 2-(cyclopropanecarbonylamino)benzothiazol-6-yl ester]				809 nM
NCCCCCCCC(=O)Nc1nc2ccc(OS(=O)(=O)c3cccs3)cc2s1 [Example 33f, Thiophene-2-sulfonic acid 2-(8-amino-octanoylamino)benzothiazol-6-yl ester; compound with trifluoroacetic acid]	7100 nM	1840 nM		
CNCC(=O)Nc1nc2ccc(OS(=O)(=O)c3cccs3)cc2s1 [Example 33c, Thiophene-2-sulfonic acid 2-(2-methylamino-acetylamino)benzothiazol-6-yl ester; compound with trifluoroacetic acid]	> 10000 nM	8270 nM		
NCC(=O)Nc1nc2ccc(OS(=O)(=O)c3cccs3)cc2s1 [Example 33b, Thiophene-2-sulfonic acid 2-(2-amino-acetylamino)benzothiazol-6-yl ester; compound with trifluoroacetic acid]	> 10000 nM	6340 nM		
CCNCCNc1ccc(S(=O)(=O)Oc2ccc3nc(NC(=O)CCCCCCCN)sc3c2)cc1 [Example 22b, 4-(2-ethylaminoethyl-amino)benzene sulfonic acid 2-(8-aminooctanoyl-amino)benzothiazol-6-yl ester]	783 nM	547 nM		
O=C(CC1CCNCC1)Nc1nc2ccc(OS(=O)(=O)c3ccc(NCCNCCO)cc3)cc2s1 [Example 19c, 4-[2-(2-Hydroxyethyl-amino)ethylamino]benzene-sulfonic acid 2-(2-piperid-4-ylacetylamino)benzo-thiazol-6-yl ester hydro-chloride]	1220 nM	5780 nM		
NCCC(=O)Nc1nc2ccc(OS(=O)(=O)c3cccs3)cc2s1 [Example 33d, Thiophene-2-sulfonic acid 2-(3-amino-propionylamino)benzothiazol-6-yl ester; compound with trifluoroacetic acid]	8270 nM	2950 nM		
CC(C)N(CCNc1ccc(S(=O)(=O)Oc2ccc3nc(NC(=O)CC4CCNCC4)sc3c2)cc1)C(C)C [Example 42, 4-(2-diisopropylaminoethylamino)benzenesulfonic acid 2-(2-piperid-4-ylacetylamino)benzothiazol-6-yl ester]	202 nM	1140 nM		
CCNCCNc1ccc(S(=O)(=O)Oc2ccc3nc(NC(=O)CC4CCNCC4)sc3c2)cc1 [Example 19b, 4-(2-Ethylaminoethyl-amino)benzenesulfonic acid 2-(2-piperid-4-ylacetyl-amino)benzothiazol-6-yl ester hydrochloride]	732 nM	5470 nM		
NCCCCCCCC(=O)Nc1nc2ccc(OS(=O)(=O)c3ccc(NCCNCCO)cc3)cc2s1 [Example 22c, 4-[2-(2-hydroxyethyl-amino)ethylamino]benzene-sulfonic acid 2-(8-amino-octanoylamino)benzo-thiazol-6-yl ester hydro-chloride]	1570 nM	1100 nM		
